The supplement of paper PMC10307832

Tests used:
Experiment in all cases: relative viability (nuclei count vs DMSO), 5 days (fraction); higher = more cells survive
AT-7519 + OSI-027 = compound: O=C(NC1CCNCC1)c1n[nH]cc1NC(=O)c1c(Cl)cccc1Cl [AT-7519] + COc1cccc2cc(-c3nc([C@H]4CC[C@H](C(=O)O)CC4)n4ncnc(N)c34)[nH]c12 [OSI-027] (partner 0.5 µM)
Outline: (§1)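 Cells from lung cancer lines were seeded into 1536-well plates and, one day later, dosed by pin tool. Treatments were either a single drug or a fixed dose of an anchor drug with five library-drug doses (not always all listed) in √10 steps. After 5 days, nuclei were stained in a one-step fixation (final 0.05% Triton X-100, 1% formaldehyde, 1 ug/ml Hoechst) and counted on 4× images, and relative viability is the treated-to-vehicle nuclei ratio, as the median of duplicate plates.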

[1] = compound: C1=CC2=C(C=C(C(=C2N=C1)O)N=NC3=CC4=C(C=C3)C=C(C=C4)S(=O)(=O)O)S(=O)(=O)O + Nc1nc2[nH]cc(CCc3ccc(C(=O)N[C@@H](CCC(=O)O)C(=O)O)cc3)c2c(=O)[nH]1 [Pemetrexed] (partner 0.2 µM)
Outline: as §1

AT-7519 + Decitabine = compound: O=C(NC1CCNCC1)c1n[nH]cc1NC(=O)c1c(Cl)cccc1Cl [AT-7519] + Nc1ncn([C@H]2C[C@H](O)[C@@H](CO)O2)c(=O)n1 [Decitabine] (partner 2 µM)
Outline: as §1

AT-7519 + Olaparib = compound: O=C(NC1CCNCC1)c1n[nH]cc1NC(=O)c1c(Cl)cccc1Cl [AT-7519] + O=C(c1cc(Cc2n[nH]c(=O)c3ccccc23)ccc1F)N1CCN(C(=O)C2CC2)CC1 [Olaparib] (partner 8 µM)
Outline: as §1

Cell Line | relative viability (AT-7519 + OSI-027; first compound 0.01 µM) | relative viability (AT-7519 + OSI-027; first compound 0.03162 µM) | relative viability (AT-7519 + OSI-027; first compound 0.3162 µM) | relative viability (AT-7519 + OSI-027; first compound 1 µM) | relative viability ([1]; first compound 0.08 µM) | relative viability ([1]; first compound 0.253 µM) | relative viability ([1]; first compound 0.8 µM) | relative viability ([1]; first compound 2.53 µM) | relative viability ([1]; first compound 8 µM) | relative viability (AT-7519 + Decitabine; first compound 0.01 µM) | relative viability (AT-7519 + Decitabine; first compound 0.03162 µM) | relative viability (AT-7519 + Decitabine; first compound 0.3162 µM) | relative viability (AT-7519 + Decitabine; first compound 1 µM) | relative viability (AT-7519 + Olaparib; first compound 0.01 µM) | relative viability (AT-7519 + Olaparib; first compound 0.03162 µM) | relative viability (AT-7519 + Olaparib; first compound 0.3162 µM) | relative viability (AT-7519 + Olaparib; first compound 1 µM)
HCC-44 | 0.516 | 0.493 | 0.28 | 0.317 | 0.703 | 0.692 | 0.649 | 0.675 | 0.728 | 0.928 | 0.95 | 0.978 | 1.04 | 1.08 | 1.01 | 0.937 | 1.02
HCC-827 | 0.842 | 0.72 | 0.705 | 0.539 | 0.269 | 0.21 | 0.296 | 0.224 | 0.246 | 0.337 | 0.347 | 0.355 | 0.3 | 0.635 | 0.815 | 0.659 | 0.54
NCI-H1623 | 0.529 | 0.424 | 0.432 | 0.362 | – | – | – | – | – | – | – | – | – | – | – | – | –
NCI-H2347 | 0.457 | 0.389 | 0.358 | 0.229 | 0.44 | 0.474 | 0.444 | 0.403 | 0.343 | 0.561 | 0.59 | 0.571 | 0.526 | 0.619 | 0.506 | 0.561 | 0.41
PC-14 | 0.725 | 0.701 | 0.691 | 0.125 | 0.127 | 0.129 | 0.145 | 0.132 | 0.11 | 0.264 | 0.205 | 0.189 | 0.0859 | 0.234 | 0.227 | 0.231 | 0.104
NCI-H1651 | 0.764 | 0.734 | 0.598 | 0.59 | 0.678 | 0.534 | 0.601 | 0.609 | 0.54 | 0.678 | 0.555 | 0.626 | 0.614 | 0.201 | 0.172 | 0.163 | 0.204
HARA | 0.425 | 0.36 | 0.523 | 0.423 | 0.212 | 0.214 | 0.252 | 0.206 | 0.237 | 0.526 | 0.531 | 0.819 | 0.441 | 0.753 | 0.478 | 0.482 | 0.301
NCI-H1650 | 0.779 | 0.598 | 0.46 | 0.181 | 0.433 | 0.346 | 0.368 | 0.389 | 0.4 | 0.401 | 0.388 | 0.431 | 0.204 | 0.899 | 0.776 | 0.75 | 0.193
NCI-H1395 | 0.659 | 0.618 | 0.525 | 0.62 | 0.814 | 0.816 | 0.68 | 0.763 | 0.782 | 0.658 | 0.726 | 0.691 | 0.582 | 0.374 | 0.471 | 0.413 | 0.419
LU99A | 0.315 | 0.248 | 0.223 | 0.299 | 0.161 | 0.401 | 0.183 | 0.181 | 0.19 | 0.953 | 0.843 | 0.791 | 0.484 | 0.278 | 0.247 | 0.228 | 0.229
NCI-H1355 | 0.407 | 0.471 | 0.374 | 0.374 | 1.13 | 1.05 | 1.02 | 1.1 | 0.872 | 0.347 | 0.347 | 0.359 | 0.331 | 0.687 | 0.765 | 0.789 | 0.68
HCC-78 | 0.386 | 0.395 | 0.349 | 0.341 | 0.915 | 0.922 | 0.902 | 0.887 | 0.908 | 0.688 | 0.704 | 0.696 | 0.626 | 1.01 | 0.758 | 0.806 | 0.666
NCI-H1563 | 0.737 | 0.794 | 0.722 | 0.728 | 0.776 | 0.744 | 0.726 | 0.79 | 0.376 | – | – | – | – | – | – | – | –
HCC-15 | 0.673 | 0.632 | 0.54 | 0.34 | 0.221 | 0.229 | 0.213 | 0.235 | 0.24 | 0.59 | 0.567 | 0.498 | 0.441 | 0.712 | 0.772 | 0.73 | 0.355
EKVX | 0.725 | 0.536 | 0.687 | 0.709 | 0.41 | 0.369 | 0.393 | 0.397 | 0.388 | 0.331 | 0.303 | 0.57 | 0.463 | 0.816 | 0.758 | 0.809 | 0.995
NCI-H2087 | 0.729 | 0.649 | 0.493 | 0.151 | 0.643 | 0.599 | 0.567 | 0.602 | 0.7 | 0.24 | 0.257 | 0.262 | 0.0751 | 0.607 | 0.515 | 0.421 | 0.0663
LK-2 | 0.182 | 0.217 | 0.19 | 0.189 | 0.312 | 0.224 | 0.212 | 0.269 | 0.283 | 0.23 | 0.276 | 0.298 | 0.266 | 0.815 | 0.74 | 0.706 | 0.593
